The values that follow come from publication PMC3187749, “Discovery of Diverse Small Molecule Chemotypes with Cell-Based PKD1 Inhibitory Activity” (PLoS ONE, 2011).

In general, IC50 refers to the concentration needed to halve the response being measured. The term EC50 denotes the concentration needed to bring the measured effect to its halfway point. The term inhibition denotes the drop in the measured response relative to a control, in per cent.

The structures appear in SMILES notation.

Test [1] has as its system PLK1. As to the kind of experiment: IMAP-based PLK1 counter screen. Type of test: biochemical. The note with it: concentrations up to 50 µM. The source says:
(§1) It was also gratifying that, in general, our novel cell active PKD1 inhibitors appeared to be less promiscuous than PKD1 inhibitors having minimal to no cellular PKD1 inhibitory activity (Table 1). For example, CIDs 755673 and 1893668 display additional confirmed activity in six and seven, respectively, PubChem bioassays while CID 2011756 has confirmed activity in only one additional PubChem bioassay. […] In contrast, the remaining chemotypes registered as confirmed actives in 2–43 additional bioassays (Table 1). Additional chemical similarity searching, focusing on our four novel cell-active PKD1 inhibitory chemotypes, using MetaDrug also supports a comparative lack of promiscuity of these compounds.
For orientation: The purpose of a counterscreen is to sort out artefacts and off-target activity.

For test [2], the target named is T1, PKD2 (Homo sapiens, UniProt Q9BZL6).
T1 sequence (Q9BZL6 1-878): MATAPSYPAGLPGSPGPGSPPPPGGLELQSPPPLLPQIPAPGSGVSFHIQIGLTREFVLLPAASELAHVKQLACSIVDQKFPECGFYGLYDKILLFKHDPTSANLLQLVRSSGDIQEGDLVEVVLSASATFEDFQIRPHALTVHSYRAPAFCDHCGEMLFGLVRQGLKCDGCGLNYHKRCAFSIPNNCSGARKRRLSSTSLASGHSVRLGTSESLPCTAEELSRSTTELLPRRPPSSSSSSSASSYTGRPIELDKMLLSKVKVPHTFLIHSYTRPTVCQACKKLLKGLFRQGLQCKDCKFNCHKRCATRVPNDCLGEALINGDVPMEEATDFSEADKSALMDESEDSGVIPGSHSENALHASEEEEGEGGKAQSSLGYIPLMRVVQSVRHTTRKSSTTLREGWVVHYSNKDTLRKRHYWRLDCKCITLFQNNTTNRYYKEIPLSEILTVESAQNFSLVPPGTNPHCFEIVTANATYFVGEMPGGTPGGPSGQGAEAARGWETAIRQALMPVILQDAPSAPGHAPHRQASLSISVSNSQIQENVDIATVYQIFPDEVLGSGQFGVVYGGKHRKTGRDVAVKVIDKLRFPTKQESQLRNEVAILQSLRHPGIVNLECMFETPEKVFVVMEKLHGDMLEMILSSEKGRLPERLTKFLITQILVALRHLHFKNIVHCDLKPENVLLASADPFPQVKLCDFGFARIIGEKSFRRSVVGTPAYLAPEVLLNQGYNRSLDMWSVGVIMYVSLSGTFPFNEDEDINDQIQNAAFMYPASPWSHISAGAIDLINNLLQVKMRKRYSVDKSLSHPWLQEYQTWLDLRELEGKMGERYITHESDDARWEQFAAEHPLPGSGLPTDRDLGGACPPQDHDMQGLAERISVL
As to the kind of experiment: Radiometric PKD2 in vitro kinase assay. Type of test: biochemical. The note with it: preliminary in vitro data. How it is done:
(§2) Kinase reactions were initiated with the addition of ATP (50 µM ATP, 1.0 µCi γ-^33P-ATP; Perkin Elmer, Boston, MA) and incubated for 20 min at 30°C. Twenty-five µL of the reaction was spotted onto Whatman P81 filter paper (Whatman Inc., Clifton, NJ). Filter papers were then washed three times in 0.5% phosphoric acid, air-dried, and counted using an LS6500 multi-purpose scintillation counter (Beckman Coulter, Fullerton, CA). IC50 determinations were performed using GraphPad Prism software 5.0. Radiometric PKD2 and PKD3 in vitro kinase assays were performed as previously described.

The subject of test [3] is CDK7. As to the kind of experiment: IMAP-based CDK7 counter screen. The note with it: concentrations up to 50 µM. Type of test: biochemical.
From the text: as §1

Test [4] has as its target T2, recombinant human PKD1 (Homo sapiens, UniProt Q15139).
T2 construct: His; purchased Millipore (Billerica, MA)
T2 sequence (Q15139 1-912): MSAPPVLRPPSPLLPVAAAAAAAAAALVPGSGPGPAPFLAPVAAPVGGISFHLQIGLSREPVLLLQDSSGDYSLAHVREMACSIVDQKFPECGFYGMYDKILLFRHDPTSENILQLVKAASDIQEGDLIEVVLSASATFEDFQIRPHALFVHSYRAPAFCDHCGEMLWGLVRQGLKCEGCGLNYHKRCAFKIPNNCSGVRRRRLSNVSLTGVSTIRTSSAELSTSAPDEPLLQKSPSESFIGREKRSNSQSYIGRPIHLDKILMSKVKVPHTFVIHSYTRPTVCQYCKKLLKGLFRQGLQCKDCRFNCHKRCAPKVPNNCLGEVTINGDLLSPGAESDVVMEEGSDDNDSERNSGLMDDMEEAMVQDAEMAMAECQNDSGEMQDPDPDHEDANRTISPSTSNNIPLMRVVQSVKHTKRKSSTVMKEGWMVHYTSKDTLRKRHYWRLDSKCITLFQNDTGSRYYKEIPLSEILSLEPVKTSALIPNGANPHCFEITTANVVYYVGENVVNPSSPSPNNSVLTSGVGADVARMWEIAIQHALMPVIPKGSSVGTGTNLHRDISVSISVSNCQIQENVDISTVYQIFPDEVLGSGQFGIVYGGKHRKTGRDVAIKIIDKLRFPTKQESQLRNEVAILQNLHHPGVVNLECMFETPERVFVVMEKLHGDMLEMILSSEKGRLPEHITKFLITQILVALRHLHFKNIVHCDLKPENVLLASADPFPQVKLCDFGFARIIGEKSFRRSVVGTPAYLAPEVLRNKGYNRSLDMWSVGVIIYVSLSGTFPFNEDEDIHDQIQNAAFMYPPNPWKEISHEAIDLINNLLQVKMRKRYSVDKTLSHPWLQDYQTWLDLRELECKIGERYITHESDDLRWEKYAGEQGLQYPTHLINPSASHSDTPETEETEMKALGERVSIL
As to the kind of experiment: In vitro radiometric PKD1 kinase assay. Type of test: biochemical. The settings on record: radiometric PKD1 kinase assay; mean ± range or SD of 2–4 independent experiments; read-out: In vitro PKD1 IC50. How it is done: as §2

For test [5], the target named is T3, endogenous PKD1 (Ser916 phosphorylation) in LNCaP prostate cancer cells (Homo sapiens, UniProt Q15139).
T3 construct: phosphorylation of endogenously expressed PKD1 Ser^916; endogenous in cells; host or cells: LNCaP prostate cancer cells
T3 sequence (Q15139 1-912): T2 sequence (Q15139 1-912)
The experiment in a line: Western blot of PMA-induced phospho-Ser916-PKD1 in LNCaP cells. The test is classed as cell-based. Here is the method: Briefly, prostate cancer cells (LNCaP) were exposed to test compounds. Cells were lysed in buffer (200 mM Tris-HCl, pH 7.4, 100 µM 4-(2-aminoethyl) benzenesulfonyl fluoride, 1 mM EGTA, and 1% Triton X-100) and cell lysates were subjected to SDS-PAGE then electrotransferred to nitrocellulose membranes. Membranes were blocked with 5% nonfat milk in Tris-buffered saline. Membranes were probed with a primary antibody then followed by a secondary anti-mouse or anti-rabbit secondary antibody conjugated to horseradish peroxidase (1∶1000, Bio-Rad). Bands were visualized by the enhanced chemiluminescence Western blotting detection system (Amersham Biosciences). The primary antibodies included p-S916-PKD1 antibody (Millipore) and GAPDH (Enzo Life Sciences, Plymouth Meeting, PA).
[…] Whole cell lysates were immunoblotted for phosphorylated Ser^916-PKD1 with GAPDH serving as a loading control.

`O=C(Nc1ccc(CN2CCOCC2)cc1)c1ccc(-c2cccc(Cl)c2)o1` [CID 2011756, 5-(3-chlorophenyl)-N-[4-(morpholin-4-ylmethyl)phenyl]furan-2-carboxamide]: the PLK1 kinase inhibition entry in test [1] is “no kinase inhibition”. The IC50 in test [2] came out at 0.6 ± 0.1 µM; in test [4], 3.2 ± 0.1 µM. Besides, in test [3], the CDK7 kinase inhibition entry is listed as “no kinase inhibition”. Besides, the EC50 in test [5] (LNCaP cells, PMA stimulation, n = 3, read-out: Cellular EC50 (phospho-Ser916-PKD1)) stood at 10 ± 0.7 µM. Further, the “Concentration dependence of inhibition of PMA-induced endogenous PKD1 activity” value in test [5] (LNCaP cells, Western blot) was “concentration-dependent inhibition”. The inhibition at 50 µM in test [5] (LNCaP, read-out: Inhibition of phosphorylation of Ser916-PKD1) is more than 50%.
